Reference: patent publication US9126999B2, “Tetrahydropyrazolopyrimidine compounds” (EISAI R&D MANAGEMENT CO., LTD., priority 2012, dated 2015)
Values joined by “and” are separate entries in the source; they are usually repeats but may differ in a detail not shown here. Identical values can stand only once. Like-named read-outs stand apart in the source and are kept apart here.

Legend:
Mouse TLR7 [1] = molecular target: T1, Mouse TLR7 (Mus musculus, UniProt P58681); experiment: Mouse spleen cell-based assay, R848 stimulus, IL-6 ELISA
T1 construct: endogenous in cells; host or cells: female BALB/c mice, in vivo
T1 sequence (P58681 27-1050): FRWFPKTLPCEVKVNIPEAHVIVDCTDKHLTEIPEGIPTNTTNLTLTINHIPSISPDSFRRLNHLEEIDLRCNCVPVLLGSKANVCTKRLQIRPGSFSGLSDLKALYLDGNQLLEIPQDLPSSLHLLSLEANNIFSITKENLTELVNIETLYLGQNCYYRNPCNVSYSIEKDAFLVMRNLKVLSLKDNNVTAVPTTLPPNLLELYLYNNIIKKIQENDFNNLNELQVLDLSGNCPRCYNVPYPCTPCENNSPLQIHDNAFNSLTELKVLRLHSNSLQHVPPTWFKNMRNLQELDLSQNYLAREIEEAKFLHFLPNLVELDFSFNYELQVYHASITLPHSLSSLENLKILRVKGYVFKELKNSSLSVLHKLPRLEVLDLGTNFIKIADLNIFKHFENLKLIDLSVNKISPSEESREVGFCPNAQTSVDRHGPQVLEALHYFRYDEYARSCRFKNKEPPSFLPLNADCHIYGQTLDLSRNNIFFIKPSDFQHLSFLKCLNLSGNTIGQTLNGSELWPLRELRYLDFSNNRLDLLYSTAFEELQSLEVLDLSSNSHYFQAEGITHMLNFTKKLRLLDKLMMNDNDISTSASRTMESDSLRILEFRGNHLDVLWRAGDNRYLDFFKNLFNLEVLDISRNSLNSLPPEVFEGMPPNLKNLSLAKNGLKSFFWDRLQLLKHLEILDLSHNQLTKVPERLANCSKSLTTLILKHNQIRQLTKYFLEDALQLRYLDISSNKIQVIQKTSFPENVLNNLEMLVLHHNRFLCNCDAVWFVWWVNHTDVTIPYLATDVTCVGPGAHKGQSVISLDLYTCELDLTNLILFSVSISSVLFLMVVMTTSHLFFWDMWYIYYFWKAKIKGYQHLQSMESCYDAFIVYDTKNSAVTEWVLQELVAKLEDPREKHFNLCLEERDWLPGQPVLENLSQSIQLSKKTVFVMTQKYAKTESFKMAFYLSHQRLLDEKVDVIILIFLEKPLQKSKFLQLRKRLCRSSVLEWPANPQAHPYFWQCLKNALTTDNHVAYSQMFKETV
Protocol: Spleens were harvested from female BALB/c mice (Jackson Labs, Bar Harbor, Me.) euthanized by CO2. A single cell suspension was obtained by passing spleens through a 40 μm nylon cell strainer. Cells were washed twice with 50 ml PBS (Mediatech, Inc., Manassas, Va.) and red blood cells were lysed in 5 ml RBC Lysis buffer (eBioscience, Inc., San Diego, Calif.) for 5 minutes at room temperature. Cells were washed twice more in PBS and finally resuspended in supplemented RPMI-1640 at 2.5×10^6 cells/ml. Cells were plated at 100 μl/well (2.5×10^5 cells/well) in 96-well tissue culture treated plates (Falcon). Serial dilutions of compounds solubilized in 100% DMSO were added in triplicate to cells to yield a final concentration of 0.1% DMSO. Cells were incubated with compound for 30 minutes at 37° C., 5% CO2 before adding 100 μl/well of 740 nM R848 (Resiquimod; GLSynthesis, Worcester, Mass.) in complete media for a final concentration of 370 nM R848. Cells were incubated for 20 hours at 37° C., 5% CO2. Culture supernatants were collected, and levels of IL-6 were assessed by standard ELISA procedure according to the manufacturer's recommended protocol (BD Biosciences, Inc., San Diego, Calif.).

Mouse TLR7 [2] = molecular target: T1, Mouse TLR7; experiment: Short-term in vivo (STIV) assay: plasma IL-6 after s.c. R848
Protocol: Figure Legend: Female BALB/c mice were dosed by oral gavage with Vehicle alone (0.5% aqueous methyl-cellulose) or compound ER-892887 formulated in Vehicle at 100 mg/kg or 300 mg/kg. At 13 or 24 hours following oral dosing, mice were injected subcutaneously with 15 ug R848 to stimulate TLR7. Blood plasma was collected by cardiac puncture, and the IL-6 level at 1.5 hours after TLR7 stimulation was then assessed by standard ELISA procedure. Percent suppression indicated is relative to IL-6 induction following Vehicle control dosing. Statistical significance was determined by Mann-Whitney test.
To assess compound potency in vivo against mouse TLR7, a short-term in vivo (STIV) assay was utilized. Briefly, mice were orally dosed with compounds and at various time points afterwards were injected subcutaneously with agonist R848 to stimulate TLR7. The plasma IL-6 level following R848 stimulation was then measured by ELISA to assess compound potency and duration-of-action. […] Therefore, the activity of compounds in the STIV assay can be confidently attributed to their modulation of the TLR7 pathway. A single oral dose of ER-892887 at 300 mg/kg suppresses the R848/TLR7/IL-6 pathway in vivo by 80-90% for at least 24 hours (see FIG. 1).
Six to eight week old female BALB/c mice (Jackson Labs, Bar Harbor, Me.) were dosed by oral gavage in 200 ul volume with antagonist compounds formulated in 0.5% aqueous methyl-cellulose (Sigma, St. Louis, Mo.). At various time points afterwards, mice were injected subcutaneously (s.c.) in 100 ul volume with 15 ug R848 (Resiquimod; GLSynthesis, Worcester, Mass.) to stimulate TLR7. Blood plasma was collected by cardiac puncture, and levels of IL-6 at 1.5 hours after TLR7 stimulation were then assessed by standard ELISA procedure according to the manufacturer's recommended protocol (R&D Systems).

[3] = system: mouse lupus disease models; experiment: SLE disease models, summary of findings; type: in vivo; settings: summary over lupus models
Protocol: Male BXSB-Yaa and female NZBWF1/J mice were purchased from Jackson Labs (Bar Harbor, Me.), both of which manifest with spontaneous lupus disease. Female DBA/1 mice were purchased from Harlan Laboratories (Indianapolis, Ind.) and at the indicated ages given an intraperitoneal injection of 0.5 ml pristane (2,6,10,14-Tetramethylpentadecane; Sigma, St. Louis, Mo.) to chemically induce lupus disease or of 0.5 ml PBS to generate age-matched, non-diseased control mice. Mice were dosed daily by oral administration of compound or drug in 0.5% methylcellulose, for the time period indicated.

[4] = Mouse Splenocyte IL-6 Inhibition (R848 Ligand), read-out: Mouse Splenocyte IC50
[5] = time point 6 hr, dose 33 mg/kg oral
[6] = time point 6 hr, dose 100 mg/kg oral
[7] = time point 13 hr, dose 33 mg/kg oral
[8] = time point 13 hr, dose 100 mg/kg oral

Row | IC50 (Mouse TLR7 [1]; [4]) | % Suppression vs. Vehicle (Mouse TLR7 [2]; time point 19 hr, dose 100 mg/kg oral) [%] | % Suppression vs. Vehicle (Mouse TLR7 [2]; time point 19 hr, dose 300 mg/kg oral) [%] | Structure (SMILES) | % Suppression vs. Vehicle (Mouse TLR7 [2]; [5]) [%] | % Suppression vs. Vehicle (Mouse TLR7 [2]; [6]) [%] | % Suppression vs. Vehicle (Mouse TLR7 [2]; [7]) [%] | % Suppression vs. Vehicle (Mouse TLR7 [2]; [8]) [%] | kidney disease as manifested by proteinuria and histologic changes [3] | production of several autoantibody specificities [3] | IC50 (Mouse TLR7 [1]; Mu Spleen, ligand R848, analyte IL-6, read-out: IC50) [nM] | suppression of the R848/TLR7/IL-6 pathway in vivo (Mouse TLR7 [2]; single oral dose 300 mg/kg) | duration of suppression of the R848/TLR7/IL-6 pathway in vivo (Mouse TLR7 [2]; single oral dose 300 mg/kg, 80-90% suppression) | % Suppression vs. Vehicle (Mouse TLR7 [2]; time point 13 hr, dose 11 mg/kg oral) [%] | % Suppression vs. Vehicle (Mouse TLR7 [2]; time point 13 hr, dose 300 mg/kg oral) [%] | % Suppression vs. Vehicle (Mouse TLR7 [2]; time point 24 hr, dose 33 mg/kg oral) [%] | % Suppression vs. Vehicle (Mouse TLR7 [2]; time point 24 hr, dose 100 mg/kg oral) [%] | % Suppression vs. Vehicle (Mouse TLR7 [2]; time point 24 hr, dose 300 mg/kg oral) [%]
1 | 3110 nM | – | – | Cc1nn(C)cc1[C@@H]1C[C@H](C(F)(F)F)n2nc(-c3ccc(NC(N)=O)cc3)cc2N1 [ER-894595] | 0 | 57 | 0 | 0 | – | – | – | – | – | – | – | – | – | –
2 | 3020 nM | – | – | Cc1nn(C)cc1[C@H]1C[C@@H](C(F)(F)F)n2nc(-c3ccc(NC(N)=O)cc3)cc2N1 [ER-894596] | – | – | – | – | – | – | – | – | – | – | – | – | – | –
3 | 680 nM | 56 | 100 | COc1ccc([C@@H]2C[C@H](C(F)(F)F)n3nc(-c4ccncc4)cc3N2)cc1OC [ER-885454] | – | – | – | – | suppressed | limited | – | – | – | – | – | – | – | –

Row | Structure (SMILES) | IC50 (Mouse TLR7 [1]; [4]) | % Suppression vs. Vehicle (Mouse TLR7 [2]; time point 19 hr, dose 100 mg/kg oral) [%] | % Suppression vs. Vehicle (Mouse TLR7 [2]; time point 19 hr, dose 300 mg/kg oral) [%] | % Suppression vs. Vehicle (Mouse TLR7 [2]; [5]) [%] | % Suppression vs. Vehicle (Mouse TLR7 [2]; [6]) [%] | % Suppression vs. Vehicle (Mouse TLR7 [2]; [7]) [%] | % Suppression vs. Vehicle (Mouse TLR7 [2]; [8]) [%] | kidney disease as manifested by proteinuria and histologic changes [3] | production of several autoantibody specificities [3] | IC50 (Mouse TLR7 [1]; Mu Spleen, ligand R848, analyte IL-6, read-out: IC50) [nM] | suppression of the R848/TLR7/IL-6 pathway in vivo (Mouse TLR7 [2]; single oral dose 300 mg/kg) | duration of suppression of the R848/TLR7/IL-6 pathway in vivo (Mouse TLR7 [2]; single oral dose 300 mg/kg, 80-90% suppression) | % Suppression vs. Vehicle (Mouse TLR7 [2]; time point 13 hr, dose 11 mg/kg oral) [%] | % Suppression vs. Vehicle (Mouse TLR7 [2]; time point 13 hr, dose 300 mg/kg oral) [%] | % Suppression vs. Vehicle (Mouse TLR7 [2]; time point 24 hr, dose 33 mg/kg oral) [%] | % Suppression vs. Vehicle (Mouse TLR7 [2]; time point 24 hr, dose 100 mg/kg oral) [%] | % Suppression vs. Vehicle (Mouse TLR7 [2]; time point 24 hr, dose 300 mg/kg oral) [%]
4 | COc1ccc([C@@H]2C[C@H](C(F)(F)F)n3nc(-c4ccc(C(=O)N5CCNCC5)cc4)cc3N2)cc1OC [ER-892887, (4-((5S,7R)-5-(3,4-dimethoxyphenyl)-7-(trifluoromethyl)-4,5,6,7-tetrahydropyrazolo[1,5-a]pyrimidin-2-yl)phenyl)(piperazin-1-yl)methanone] | 70 nM and 330 nM | – | – | 83 | 100 | 12 | 49 | suppressed | limited | 70 | 80-90% | at least 24 hours | 27 | 90 | 0 | 12 | 86
